{"source": "patent US8871750B2", "about": "“Use of aromatase inhibitors for endometrial thinning in preparation for surgical procedures on the endometrial cavity and uterus” (Wayne State University, priority 2004, dated 2014)", "origin": "cited, not measured here", "key": {"[1]": {"conditions": "postmenopausal breast cancer treatment"}, "endometrium [2]": {"test_system": "endometrium", "conditions": "small, randomized study"}, "endometrium [3]": {"test_system": "endometrium", "conditions": "in vivo"}}, "data": [{"compound": "CCC1(c2ccc(N)cc2)CCC(=O)NC1=O", "note": "(centres unmarked) [aminoglutethimide]", "values": [{"measurement": "patients stopping treatment because of side effects (lethargy, rashes, nausea, fever)", "setting": "[1]", "result": "8-15%"}]}, {"compound": "CC(=O)O[C@]1(C(C)=O)CC[C@H]2[C@@H]3C=C(Cl)C4=CC(=O)[C@@H]5C[C@@H]5[C@]4(C)[C@H]3CC[C@@]21C", "note": "[cyproterone acetate]", "values": [{"measurement": "effect on endometrial thickness", "setting": "endometrium [2]", "result": "significant reduction"}]}, {"compound": "CC(=O)O[C@]1(C(C)=O)CC[C@H]2[C@@H]3C[C@H](C)C4=CC(=O)CC[C@]4(C)[C@H]3CC[C@@]21C", "note": "[medroxyprogesterone acetate]", "values": [{"measurement": "effect on endometrial thickness", "setting": "endometrium [2]", "result": "no effect"}]}, {"compound": "CC#C[C@]1(O)CC[C@H]2[C@@H]3CCC4=CC(=O)CCC4=C3[C@@H](c3ccc(N(C)C)cc3)C[C@@]21C", "note": "[mifepristone]", "values": [{"measurement": "effect on endometrium and menstrual bleeding", "setting": "endometrium [3]", "result": "marked endometrial ECM breakdown and excessive menstrual bleeding"}]}, {"compound": "C#C[C@]1(O)CC[C@H]2[C@@H]3CCC4=CC(=O)CC[C@@H]4[C@H]3CC[C@@]21C", "note": "[norethisterone]", "values": [{"measurement": "effect on endometrial thickness", "setting": "endometrium [2]", "result": "no effect"}]}]}
